{"source": "patent US7759101B2", "about": "“Ginsenoside glycosidases hydrolyzing ginsenoside sugar moieties and uses thereof” (priority 2000, dated 2010)", "key": {"[1]": {"tested_on": "ginsenoside glycosidase III from ginseng plant", "test": "Hydrolysis of Rd with fraction 37 (ginsenoside glycosidase III) from ginseng plant", "type": "biochemical", "conditions": "ginsenoside glycosidase III from ginseng plant", "method": "(§1) 200 g of fresh ginseng root was cut into pieces and added to 600 ml of 0.02 M acetate buffer pH 5. Supernatant was obtained by filtration after the mixture stand at 40° C. for 2 hours. To the supernatant (NH4)2SO4 was added gradually until 70% saturation and the mixture stand overnight at 4° C. Then protein pellets were collected by centrifugation and redissolved in 15 ml of distilled water. The solution was dialyzed against 0.02 M Tris-HCl pH 7.4. Insolubles were removed by centrifugation and the volume of the supernatant was adjusted to 20 ml.\n(§2) 5 ml of the enzyme solution was subjected to a DEAE-Cellulose DE-25 column (Whatman, 1.4×6.7 cm). The column was eluted with a KCl gradient (0.06, 0.12, 0.18 and 0.24 M) in 0.02 M Tris-HCl pH 7.4. After elution, each fraction was tested for the activity of hydrolyzing ginsenosides. […] Fraction 52 can also hydrolyze the glucosidic bond at the twentieth carbon atom of Rb and Rc to give ginsenoside F2."}, "[2]": {"tested_on": "ginsenoside glycosidases from A. niger", "test": "Hydrolysis of ginsenosides with crude ginsenoside glycosidases from A. niger, products measured by TLC", "type": "biochemical, Aspergillus niger", "conditions": "for effect of metal ions on the enzyme reaction: hydrolysis of Rb1, pH 5.0, 30°C.", "method": "Aspergillus niger FFCCDL-48 g was cultured in a medium containing 1% ginseng extracts and 3% wheat bran extracts at 30° C. for 54 hours. Cells were removed by centrifugation, after which (NH4)2SO4 powder was added to 2000 ml of the cell-free supernatant with stirring to 65% saturation. The solution was stored overnight at 4° C. and precipitated proteins were collected by centrifugation, resuspended in 80 ml of distilled water and dialyzed against 0.01M acetate buffer pH 5. Insolubles were removed by centrifugation, and the solution was adjusted to 200 ml with 0.01 M acetate buffer pH 5. The crude enzyme solution may be used to hydrolyze ginsenosides or to purify the enzymes.\n100 mg each of ginsenosides Rb1, Rb2, Rc and Rd and 10 mg of ginsenoside Rg3 were dissolved in separate tubes containing 10 ml of 0.01M acetate buffer pH 5. 10 ml of the crude enzyme solution obtained in 1.1 was added to each tube and allowed to react at 30° C. for 18 hours. Then 10 ml of n-butanol was added to stop the reactions. The products were measured by thin layer chromatography (TLC) (Silica gel 60-F254, Merck; chloroform:methanol:water 70:30:5).\nExperiments were carried out to explore the effects of temperature, pH, metal ions and reaction time on the enzyme reaction, in order to further characterize the enzymes.\n100 mg of ginsenoside Rb1 was used in a reaction under the conditions as described in 1.2 and the effect of temperature was shown in Table 2."}, "[3]": {"tested_on": "ginsenoside glycosidase I from ginseng plants", "test": "Hydrolysis of ginsenosides with fraction 52 (ginsenoside glycosidase I) from ginseng plant", "type": "biochemical", "conditions": "for effect of metal ion on the enzyme: ginsenoside glycosidase I from ginseng plant", "method": "as §1, §2"}, "[4]": {"tested_on": "ginsenoside glycosidases from wheat bran", "test": "Hydrolysis of ginsenosides with ginsenoside glycosidases from wheat bran", "type": "biochemical", "method": "500 g of wheat bran was added to 2500 ml of 0.02 M acetate buffer pH 5 and extracted at 40° C. for 2 hours. 2000 ml of supernatant were obtained by filtration to which (NH4)2SO4 was added gradually with stirring until 70% saturation. The mixture stand at 4° C. overnight. Protein pellets were collected by centrifugation and redissolved in 80 ml of distilled water and dialyzed against 0.02 M acetate buffer pH 5.0. Insolubles were removed by centrifugation and the supernatant was adjusted to a volume of 200 ml to obtain the crude enzyme solution.\n10 ml of the enzyme solution was allowed to react with 10 ml of 1% ginsenoside substrate at 40° C. for 20 hours."}, "[5]": {"tested_on": "ginsenoside glycosidases from A. oryzae", "test": "Hydrolysis of ginsenosides with crude ginsenoside glycosidases from A. oryzae, TLC", "type": "biochemical, Aspergillus oryzae", "conditions": "pH 5.0, 30° C., 18 hours", "method": "Aspergillus oryzae FFCCDL-39 g (available from Food Fermentation Culture Collection of Dalian Institute of Light Industry) was cultured with stirring in a medium containing 1% ginseng extracts and 3% wheat bran extracts at 30° C. for 64 hours. Cells were removed by centrifugation, after which (NH4)2SO4 powder was added to 2000 ml of the cell-free supernatant with stirring to 65% saturation. The solution was stored overnight at 4° C. and precipitated proteins were collected by centrifugation, resuspended in 80 ml of distilled water and dialyzed against 0.01M acetate buffer pH 5. Insolubles were removed by centrifugation, and the solution was adjusted to 200 ml with 0.01 M acetate buffer pH 5. The crude enzyme solution may be used to hydrolyze ginsenosides or to purify the enzymes.\nEach 100 mg of ginsenosides Rb1, Rb2, Rc Re and Rd and each 10 mg of ginsenoside Rg3 and Rg2 were dissolved in separate tubes containing 10 ml of 0.01M acetate buffer pH 5. 10 ml of the crude enzyme solution obtained as above was added to each tube and allowed to react at 30° C. for 18 hours. Then 10 ml of n-butanol was added to stop the reactions. The products were measured by thin layer chromatography (TLC) (Silica gel 60-F254, Merck; chloroform:methanol:water 70:30:5). […]"}, "[6]": {"tested_on": "ginsenoside glycosidase I", "test": "Hydrolysis of ginsenosides with Fraction 36 (ginsenoside glycosidase I)", "type": "biochemical, Aspergillus niger", "conditions": "Fraction 36; substrates Rb1, Rb2, Rc, Rd 0.5%; Rg3, F2, Rh2, C—K, Rg2 0.05%; pH 5.0, 30° C.", "method": "10 ml of the enzyme solution obtained in 1.1 was subjected to a DEAE-Cellulose DE-52 column (Pharamcia, 1.5×6.7 cm) to absorb the enzyme protein. The column was then eluted with a NaCl gradient (0.06, 0.12, 0.18, 0.24, 0.3, 0.4, 0.5 and 0.6M).\nFractions 36 and 54 from the DEAE-Cellulose column appeared as one dot on a SDS-polyacrylamide gel, representing the purified enzymes.\nFraction 36 which was eluted with 0.12 M NaCl from the DEAE-Cellulose column was lyophilized and appeared as a single dot with a molecular weight of 51,000 Daltons when running on a SDS-polyacrylamide gel.\nTo observe the differences between the ginsenoside glycosidases of the invention and known exo-cellulases, the ginsenoside glycosidases of the invention were compared with cellulose β-glucosidase (E.C. 3.2.1.21) in two reactions with 0.5% ginsenosides Rb1 or Rd as substrate."}, "[7]": {"conditions": "10 ml of 1% ginsenoside substrate, 40° C., 20 hours"}, "[8]": {"conditions": "Fraction 52, substrate 0.5%, 50° C., pH 5.0, 18 hours"}}, "data": [{"smiles": "[Ca+2]", "note": "[Ca^++]", "values": [{"measurement": "effect of metal ion on the enzyme", "setting": "[1]", "result": "enhancing effect"}, {"measurement": "effect of metal ions on the enzyme reaction", "setting": "[2]", "result": "slightly accelerate the conversion rate"}, {"measurement": "effect of metal ion on the enzyme", "setting": "[3]", "result": "enhancing effect"}]}, {"smiles": "[Cu+2]", "note": "[Cu^++]", "values": [{"measurement": "effect of metal ion on the enzyme", "setting": "[1]", "result": "inhibitory effect"}, {"measurement": "effect of metal ion on the enzyme activity", "setting": "[4]; enzymes from wheat bran", "result": "inhibitory effect"}, {"measurement": "effect of metal ions on the enzyme reaction", "setting": "[2]", "result": "inhibit the reaction"}, {"measurement": "effect of metal ion on the enzyme", "setting": "[3]", "result": "inhibitory effect"}]}, {"smiles": "CC(C)=CCC[C@](C)(O[C@@H]1O[C@H](CO[C@@H]2O[C@@H](CO)[C@H](O)[C@H]2O)[C@@H](O)[C@H](O)[C@H]1O)[C@H]1CC[C@]2(C)[C@@H]1[C@H](O)C[C@@H]1[C@@]3(C)CC[C@H](O[C@@H]4O[C@H](CO)[C@@H](O)[C@H](O)[C@H]4O[C@@H]4O[C@H](CO)[C@@H](O)[C@H](O)[C@H]4O)C(C)(C)[C@@H]3CC[C@]12C", "note": "[Rc, ginsenoside Rc]", "values": [{"measurement": "Percentage of C—K in the reaction product", "setting": "[5]", "result": 56, "unit": "%"}, {"measurement": "Percentage of F2 in the reaction product", "setting": "[5]", "result": 30, "unit": "%"}, {"measurement": "Percentage of Rd in the reaction product", "setting": "[5]", "result": 19, "unit": "%"}, {"measurement": "Percentage of aglycone in the reaction product", "setting": "[5]", "result": 5, "unit": "%"}, {"measurement": "Percentage of F2 in the reaction product", "setting": "[4]; [7]", "result": 55, "unit": "%"}, {"measurement": "Percentage of Rd in the reaction product", "setting": "[4]; [7]", "result": 43, "unit": "%"}, {"measurement": "Percentage of C—K in the reaction product", "setting": "[2]; pH 5, 30° C., 18 hours", "result": 15, "unit": "%"}, {"measurement": "Percentage of F2 in the reaction product", "setting": "[2]; pH 5, 30° C., 18 hours", "result": 58, "unit": "%"}, {"measurement": "Percentage of Rc in the reaction product", "setting": "[2]; pH 5, 30° C., 18 hours", "result": 8, "unit": "%"}, {"measurement": "Percentage of Rd in the reaction product", "setting": "[2]; pH 5, 30° C., 18 hours", "result": 12, "unit": "%"}, {"measurement": "Percentage of Rh2 in the reaction product", "setting": "[2]; pH 5, 30° C., 18 hours", "result": 2, "unit": "%"}, {"measurement": "Percentage of aglycone in the reaction product", "setting": "[2]; pH 5, 30° C., 18 hours", "result": 5, "unit": "%"}, {"measurement": "Percentage of C—K in the reaction product", "setting": "[6]", "result": 52, "unit": "%"}, {"measurement": "Percentage of F2 in the reaction product", "setting": "[6]", "result": 36, "unit": "%"}, {"measurement": "Percentage of Rd in the reaction product", "setting": "[6]", "result": 8, "unit": "%"}, {"measurement": "Percentage of Rh2 in the reaction product", "setting": "[6]", "result": 2, "unit": "%"}, {"measurement": "Percentage of aglycone in the reaction product", "setting": "[6]", "result": 2, "unit": "%"}, {"measurement": "Percentage of F2 in the reaction product", "setting": "[3]; [8]", "result": 55, "unit": "%"}, {"measurement": "Percentage of Rd in the reaction product", "setting": "[3]; [8]", "result": 45, "unit": "%"}]}]}
